# Source: patent US12564583B2, “Small molecules against cereblon to enhance effector T cell function” (H. LEE MOFFITT CANCER CENTER AND RESEARCH INSTITUTE, INC., priority 2016, dated 2026)
# Non-standard residues stand in square brackets, D forms with d. Residues, ends and D or L forms follow the SMILES beside them. pGlu = O=C1CC[C@@H](C(=O)O)N1
# What was measured:
# IL-2 = IL-2 relative to DMSO; type: cell-based
# [1] = biological target: thalidomide binding domain (TBD) of cereblon (Homo sapiens, UniProt Q96SW2); experiment: Cereblon binding (DSF, FP/FI); conditions: for inhibition at 200 µM: read-out: Cereblon Binding (≥50% inhibition at 200 μM)
# Chain of thalidomide binding domain (TBD) of cereblon (Q96SW2 318-426 limits assumed): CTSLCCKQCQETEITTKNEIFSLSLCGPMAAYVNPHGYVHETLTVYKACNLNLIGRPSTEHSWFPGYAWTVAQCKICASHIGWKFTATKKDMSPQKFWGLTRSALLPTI
# Description: Several libraries are available for screening inhibitors. Virtual analysis was formulated and then theoretical design of chemical test kit and virtual screen of test kit were carried out. Physical binding studies were also completed for the initial compounds using DSF and FP assays after they are fully tested. TEST KITs that represent the compounds identified from each of the available chemical libraries based on virtual chemical structures were also made.
# [2] = Viability relative to DMSO; type: cell-based; design: concentration or dose not given beside the values
Compound,IL-2 (%) (Relative to DMSO) (IL-2),Cereblon Binding (≥50% inhibition at 200 μM) [1],viability [2],inhibition at 200 µM [1]
Nc1cccc2c1CN([C@H]1CC(=O)NC1=O)C2=O,124.9%,No,,
O=c1ccn(CCCCc2ccccc2)c(=O)[nH]1,101.8%,Yes*,86.4%,
O=C1CCC(NS(=O)(=O)c2cccc([N+](=O)[O-])c2)C(=O)N1 (stereo not shown),143.7%,Yes*,80%,
Nc1ccccc1S(=O)(=O)NC1CCC(=O)NC1=O (stereo not shown),54.7%,Yes*,99.1%,
Nc1cccc2c1C(=O)N(C1CCC(=O)NC1=O)C2=O (stereo not shown) [drawing 76],208.6%,,96.3%,> 50%
COC(=O)[C@H](C)NC(=O)[C@@H]1CCC(=O)N1 ([pGlu]-Ala-OMe),11.7%,No,101%,
O=C1CCC(NS(=O)(=O)c2ccc([N+](=O)[O-])cc2)C(=O)N1 (stereo not shown),56.3%,Yes*,93.4%,
Cc1ccc(N)c(C(=O)NCCn2ccc(=O)[nH]c2=O)c1,83.7%,Yes*,75.2%,
Nc1ccc(Cl)cc1C(=O)NCCN1CCC(=O)NC1=O,20.6%,,78.8%,> 50%
Nc1cccc(S(=O)(=O)NC2CCC(=O)NC2=O)c1 (stereo not shown),127.0%,,99.7%,> 50%
CCN(Cc1ccccc1)C1CCC(=O)NC1=O (stereo not shown),32.1%,,99.1%,> 50%
CCNc1cccc(S(=O)(=O)NC2CCC(=O)NC2=O)c1 (stereo not shown),124.4%,Yes*,100%,
Nc1ccc(Cl)cc1C(=O)NCCn1ccc(=O)[nH]c1=O,51.2%,Yes*,74.8%,
Cc1nc2cccc(N)c2c(=O)n1C1CCC(=O)NC1=O (stereo not shown),283.4%,,84.4%,> 50%
CC(C)[C@H](NC(=O)c1ccccc1)C(=O)NC1CCC(=O)NC1=O (stereo partly shown),84.5%,Yes*,99.1%,
O=c1ccn(CCNS(=O)(=O)Cc2ccccc2)c(=O)[nH]1,138.2%,,76.7%,> 50%
Nc1cc(Cl)ccc1C(=O)NCCn1ccc(=O)[nH]c1=O,67.3%,Yes*,70.4%,
O=C1CCN(CCNC(=O)c2ccccc2)C(=O)N1,47.1%,,84.9%,> 50%
C=CCCCCCCCCC(=O)NC1CCC(=O)NC1=O (stereo not shown),15.6%,,82.3%,> 50%
Nc1cccc2c1C(=O)N(C1CC(=O)NC1=O)C2=O (stereo not shown),193.8%,No,97%,
O=C1CCC(N2CCc3ccc(O)cc3C2)C(=O)N1 (stereo not shown),32.2%,Yes*,102%,

Compound,IL-2 (%) (Relative to DMSO) (IL-2),Cereblon Binding (≥50% inhibition at 200 μM) [1],viability [2],inhibition at 200 µM [1]
O=C1CCC(NCc2ccco2)C(=O)N1 (stereo not shown),136.9%,,95.9%,> 50%
O=c1ccn(Cc2ccccc2)c(=O)[nH]1,88.2%,Yes*,79.5%,
O=C1CCC(NCc2ccc(N3CCOCC3)cc2)C(=O)N1 (stereo not shown),14.9%,,94.5%,> 50%
Cc1ccc(C(=O)NC2CCC(=O)NC2=O)o1 (stereo not shown),48.0%,,84.7%,> 50%
CN1C(=O)CCC(N2Cc3c(N)cccc3C2=O)C1=O.Cl (stereo not shown),199.2%,No,106%,
O=C1CCC(N2CCCC(c3ccccc3)C2)C(=O)N1 (stereo not shown),45.3%,Yes*,92.1%,
NC(=O)[C@H](Cc1ccccc1)NC(=O)[C@@H]1CCC(=O)N1,39.8%,No,74.7%,
Nc1cccc2c1CN(C1CCC(=O)NC1=O)C2=O (stereo not shown) [drawing 75],,,99.9%,
O=C1CC(N2C(=O)c3ccccc3C2=O)C(=O)N1 (stereo not shown),10.9%,No,75.3%,
O=C1CCC(=O)N1,199.7%,,75.3%,> 50%
O=c1ccn(CCNS(=O)(=O)c2ccccc2)c(=O)[nH]1,90.8%,Yes*,77.8%,
O=C1CCC(NC(=O)CCNS(=O)(=O)c2ccccc2)C(=O)N1 (stereo not shown),32.7%,,77.2%,> 50%
Nc1cccc(F)c1C(=O)NCCn1ccc(=O)[nH]c1=O,107.0%,Yes*,95%,
O=c1ccn(CCCc2ccccc2)c(=O)[nH]1,99.7%,Yes*,93.1%,
CC(C)C[C@H](NC(=O)[C@@H]1CCC(=O)N1)C(N)=O ([pGlu]-Leu-NH2),24.6%,No,110%,
O=C1CC[C@@H](C(=O)Nc2ccccc2)N1,0.5%,No,106%,
O=C1CCC(NC(=O)CCNS(=O)(=O)c2c(F)cccc2F)C(=O)N1 (stereo not shown),120.1%,,99.4%,> 50%
O=C1CCC(NS(=O)(=O)c2ccc3c(c2)OCCCO3)C(=O)N1 (stereo not shown),61.6%,Yes*,73.6%,
Nc1ccccc1S(=O)(=O)NCCn1ccc(=O)[nH]c1=O,31.8%,No,74.6%,
CNc1ccccc1C(=O)NCCn1ccc(=O)[nH]c1=O,158.7%,,97%,> 50%
O=C1CCC(N2CCc3ccc([N+](=O)[O-])cc3C2)C(=O)N1 (stereo not shown),23.0%,Yes*,84.2%,

Compound,IL-2 (%) (Relative to DMSO) (IL-2),Cereblon Binding (≥50% inhibition at 200 μM) [1],viability [2],inhibition at 200 µM [1]
COc1ccc(C2=NNC(=O)CC2)cc1OC,12.4%,No,100%,
O=C1CN(N2C(=O)c3cccc([N+](=O)[O-])c3C2=O)C(=O)N1,50.0%,No,96.4%,
O=C1CCC(N2CCc3ccccc3C2)C(=O)N1 (stereo not shown),105.4%,Yes*,99.5%,
CC(=O)N[C@H](C(=O)NC1CCC(=O)NC1=O)C(C)C (stereo partly shown),126.4%,DSF (check) FI (borderline),79.4%,
Nc1ccccc1C(=O)NCCn1cc(F)c(=O)[nH]c1=O,109.0%,Yes*,89.7%,
O=c1ccn(CCCc2ccc(Cl)cc2)c(=O)[nH]1,93.9%,Yes*,90.7%,
Cn1cncc1C(=O)NC1CCC(=O)NC1=O (stereo not shown),148.0%,,95.3%,> 50%
CNc1ccccc1C(=O)NCCn1cc(F)c(=O)[nH]c1=O,75.1%,Yes*,79.2%,
O=C1CCC(NC(=O)c2ccccc2NC(=O)CCl)C(=O)N1 (stereo not shown),40.3%,,69.9%,> 50%
O=C1CCC(N2CCc3ccccc32)C(=O)N1 (stereo not shown),,,98.7%,
O=C1NC(=O)c2ccccc21,110.8%,No,92.4%,
O=C1CCC(N2Cc3ccccc3C2)C(=O)N1 (stereo not shown),69.0%,Yes*,84.8%,
O=C1c2ccccc2C(=O)N1c1cc[nH]c(=O)c1,123.3%,No,95.3%,
COc1ccc2c(c1)CCN(C1CCC(=O)NC1=O)C2 (stereo not shown),79.0%,Yes*,74.4%,
O=C1CCC(NCc2ccccn2)C(=O)N1 (stereo not shown),7.8%,,84.9%,> 50%
Nc1cc(Cl)ccc1C(=O)NCCN1CCC(=O)NC1=O,14.1%,Yes*,78.7%,
O=C1CCC(N2CCC(c3ccccc3)CC2)C(=O)N1 (stereo not shown),41.5%,,100%,> 50%
Nc1ccc2c(c1)CCN(C1CCC(=O)NC1=O)C2 (stereo not shown),54.6%,Yes*,95.8%,
CNc1ccccc1C(=O)NCCN1CCC(=O)NC1=O,167.5%,Yes*,101%,
O=C(NCCn1ccc(=O)[nH]c1=O)c1ccccc1,124.5%,,84.2%,> 50%
